ChEMBL document CHEMBL4196086, “Recent advances of imidazole-containing derivatives as anti-tubercular agents” (Eur J Med Chem, 2018)
In brackets after ≈: the same amount, converted by molar mass.

Tests used:
[1] = tested on: Mycobacterium tuberculosis; assay: Antimycobacterial activity against Mycobacterium tuberculosis H37Rv; type: functional; conditions: Mycobacterium tuberculosis, H37Rv
[2] = Inhibition of Mycobacterium tuberculosis IMPDH
[3] = tested on: Mycobacterium tuberculosis; assay: Antimycobacterial activity against Mycobacterium tuberculosis H37Rv in logarithmic phase; type: functional
[4] = tested on: Mycobacterium tuberculosis; assay: Antimycobacterial activity against Mycobacterium tuberculosis H37Rv in hypoxia-induced latent phase; type: functional
[5] = tested on: Mycobacterium tuberculosis; assay: Antimycobacterial activity against non-replicating Mycobacterium tuberculosis; type: functional
[6] = tested on: Mycobacterium tuberculosis; assay: Growth inhibition of Mycobacterium tuberculosis H37Rv at 100 ug/ml relative to control; type: functional; conditions: read-out: GI
[7] = Selectivity index, ratio of IC50 for African green monkey Vero cells to MIC for Mycobacterium tuberculosis H37Rv ATCC 27294; type: toxicity; conditions: read-out: Selectivity Index
[8] = tested on: Mycobacterium tuberculosis; assay: Antimycobacterial activity against Mycobacterium tuberculosis H37Rv ATCC 27294 by MABA; type: functional
[9] = tested on: Mycobacterium tuberculosis; assay: Antimycobacterial activity against Mycobacterium tuberculosis; type: functional

In the case of `CC1(C)CCc2c(c3ccccc3c3nc(-c4c[nH]c5ccccc45)[nH]c23)O1`, the MIC [1] is reported as 1.56 to 6.25 µg/mL (≈ 4.25 to 17 µM).
With `O=C(Cn1c(-c2cscn2)nc2ccccc21)Nc1ccc(F)cc1` the IC50 [2] was 3000 to 10000 nM.
For `N#Cc1ccc(NC(=O)Cn2c(-c3cscn3)nc3ccccc32)cc1`, the IC50 [2] was 3000 to 10000 nM.
Work on `O=C(Cn1c(-c2cscn2)nc2ccccc21)Nc1ccc(Br)cc1` yielded an IC50 [2] of 3000 nM.
In the case of `O=C(Cn1c(-c2cscn2)nc2ccccc21)Nc1cccc(Cl)c1`, the IC50 [2] is reported as 3000 to 10000 nM.
`COc1ccc(-c2cn(Cc3ccc(Cl)cc3Cl)cc2C(c2ccccc2)n2ccnc2)cc1` (configuration not stated) showed an MIC [1] of 1 µg/mL (≈ 2.05 µM).
`O=C(Cn1c(-c2cscn2)nc2ccccc21)Nc1ccc(Cl)cc1` gave an IC50 [2] of 3000 to 10000 nM.
Compound `Clc1ccc(Cn2cc(-c3ccccc3)c(C(c3ccccc3)n3ccnc3)c2)c(Cl)c1` (configuration not stated) has an MIC [1] of 1 to 16 µg/mL (≈ 2.18 to 34.9 µM).
Work on `COc1ccc(-c2nc3cc(-c4ccc5[nH]c(-c6ccc(OC)cc6)nc5c4)ccc3[nH]2)cc1` yielded an MIC [3] of 0.5 to 16 µg/mL (≈ 1.12 to 35.8 µM) and an MIC [4] of 0.5 to 16 µg/mL (≈ 1.12 to 35.8 µM).
In the case of `Oc1ccc(-c2nc3ccc(-c4ccc5nc(-c6ccc(O)cc6)[nH]c5c4)cc3[nH]2)cc1`, the MIC [3] is reported as 0.5 to 16 µg/mL (≈ 1.19 to 38.2 µM) and the MIC [4] is reported as 0.5 to 16 µg/mL (≈ 1.19 to 38.2 µM).
`CCc1nc2ccc(C)cc2n1CCCCOc1ccccc1` gave an MIC [5] of 0.056 to 2.6 µM (≈ 0.0173 to 0.802 µg/mL).
`CCc1nc2ccc(C)cc2n1CCCCNc1ccccc1` gave an MIC [5] of 0.056 to 2.6 µM (≈ 0.0172 to 0.799 µg/mL).
Work on `COc1cccc(-c2nc3ccc(-c4ccc5nc(-c6cccc(OC)c6)[nH]c5c4)cc3[nH]2)c1` yielded an MIC [3] of 0.5 to 16 µg/mL (≈ 1.12 to 35.8 µM) and an MIC [4] of 0.5 to 16 µg/mL (≈ 1.12 to 35.8 µM).
For `CCc1nc2ccc(C)cc2n1CCCCNc1ccc(OCc2ccccc2)cc1`, the MIC [5] was 0.056 to 2.6 µM (≈ 0.0232 to 1.08 µg/mL).
For `COc1ccc2c(c1)cc(-c1nc(-c3ccccc3)c(-c3ccccc3)n1-c1ccc(C)cc1)c1nnnn12`, the inhibition of growth at 100 µg/mL [6] was 17 to 99%.
With `Cc1ccccc1NC(=O)Cn1c(-c2cscn2)nc2ccccc21` the IC50 [2] was 3000 to 10000 nM.
Compound `CCCSc1nnc(-c2ncc([N+](=O)[O-])[nH]2)s1` has a selectivity ratio [7] of 0.3 to 0.6 and an MIC [8] of 3.13 to 6.25 µg/mL (≈ 11.5 to 23 µM).
For `COc1ccc(-n2c(-c3cc4cc(Cl)ccc4n4nnnc34)nc(-c3ccccc3)c2-c2ccccc2)cc1`, the inhibition of growth at 100 µg/mL [6] was 17 to 99%.
`Clc1ccc2c(c1)cc(-c1nc(-c3ccccc3)c(-c3ccccc3)n1-c1ccccc1)c1nnnn12` gave an inhibition of growth at 100 µg/mL [6] of 17 to 99%.
Work on `CCCS(=O)(=O)c1nnc(-c2ncc([N+](=O)[O-])[nH]2)s1` yielded a selectivity ratio [7] of 0.3 to 0.6 and an MIC [8] greater than 6.25 µg/mL.
In the case of `O=C1/C(=C\c2ccccc2)SC(c2ccc(-n3ccnc3)cc2)N1Nc1ccccc1` (configuration not stated), the MIC [9] is reported as 14.3 to 49.7 µM (≈ 6.06 to 21.1 µg/mL).
Compound `Cc1ccc(Oc2cc3[nH]c(Cn4ccnc4)nc3cc2F)cc1` has an MIC [1] of 12.5 to 100 µg/mL (≈ 38.8 to 310 µM).
`O=C1/C(=C\c2ccc(Cl)cc2)SC(c2ccc(-n3ccnc3)cc2)N1Nc1ccccc1` (configuration not stated) showed an MIC [9] of 14.3 to 49.7 µM (≈ 6.55 to 22.8 µg/mL).
`c1ccc(-c2nc(-c3cc4ccccc4n4nnnc34)n(-c3ccccc3)c2-c2ccccc2)cc1` gave an inhibition of growth at 100 µg/mL [6] of 17 to 99%.
`Cc1ccc(-n2c(-c3cc4cc(Cl)ccc4n4nnnc34)nc(-c3ccccc3)c2-c2ccccc2)cc1` showed an inhibition of growth at 100 µg/mL [6] of 17 to 99% and an MIC99 [1] of 25 µg/mL (≈ 48.7 µM).
With `Cc1ccc(-n2c(-c3cc4ccccc4n4nnnc34)nc(-c3ccccc3)c2-c2ccccc2)cc1` the inhibition of growth at 100 µg/mL [6] was 17 to 99%.
With `CCc1nc2ccc(C)cc2n1CCCCNc1ccc(OC)cc1` the MIC [5] was 0.056 to 2.6 µM (≈ 0.0189 to 0.877 µg/mL).
`CCc1nc2ccc(C)cc2n1CCCCSc1ccc(Cl)cc1` gave an MIC [5] of 0.056 to 2.6 µM (≈ 0.0201 to 0.933 µg/mL).
In the case of `CCc1nc2ccc(C)cc2n1CCCCNc1cccc(C(F)(F)F)c1`, the MIC [5] is reported as 0.056 to 2.6 µM (≈ 0.021 to 0.976 µg/mL).
Work on `CC[S+]([O-])c1nnc(-c2ncc([N+](=O)[O-])[nH]2)s1` (configuration not stated) yielded a selectivity ratio [7] of 0.3 to 0.6 and an MIC [8] of 1.56 µg/mL (≈ 5.71 µM).
`Fc1ccc(-c2cn(Cc3ccc(Cl)cc3Cl)cc2C(c2ccccc2)n2ccnc2)cc1` (configuration not stated) showed an MIC [1] of 1 µg/mL (≈ 2.1 µM).
Compound `CCSc1nnc(-c2ncc([N+](=O)[O-])[nH]2)s1` has a selectivity ratio [7] of 0.3 to 0.6 and an MIC [8] of 3.13 to 6.25 µg/mL (≈ 12.2 to 24.3 µM).
Work on `COc1ccc(-n2c(-c3cc4cc(OC)ccc4n4nnnc34)nc(-c3ccccc3)c2-c2ccccc2)cc1` yielded an inhibition of growth at 100 µg/mL [6] of 17 to 99%.
Compound `Fc1cc2nc(Cn3ccnc3)[nH]c2cc1Oc1ccccc1` has an MIC [1] of 12.5 to 100 µg/mL (≈ 40.5 to 324 µM).
